What all share (assay type): biochemical
One test concerns the target T1, OtsA (Escherichia coli, UniProt P31677).
T1 sequence (P31677 1-474): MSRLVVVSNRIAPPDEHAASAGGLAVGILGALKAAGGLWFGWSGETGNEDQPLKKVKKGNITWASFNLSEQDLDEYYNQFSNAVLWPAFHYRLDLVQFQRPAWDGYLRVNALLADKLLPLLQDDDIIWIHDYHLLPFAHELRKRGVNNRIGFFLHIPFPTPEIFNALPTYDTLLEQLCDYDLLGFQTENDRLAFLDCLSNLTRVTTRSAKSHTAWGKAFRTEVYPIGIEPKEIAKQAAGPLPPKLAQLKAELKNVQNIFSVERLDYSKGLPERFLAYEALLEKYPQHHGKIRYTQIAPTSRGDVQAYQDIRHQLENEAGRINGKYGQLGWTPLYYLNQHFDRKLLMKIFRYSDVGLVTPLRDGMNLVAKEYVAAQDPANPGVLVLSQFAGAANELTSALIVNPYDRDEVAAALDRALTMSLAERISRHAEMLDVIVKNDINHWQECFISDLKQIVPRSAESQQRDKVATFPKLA
As to the kind of experiment: ESI-MS of product. Particulars: UDP-glucose and glucose 6-phosphate as substrates; 5 mM MgCl2, 50 mM Tris-HCl pH 7.5.

Another test deals with T2, VldH (Streptomyces hygroscopicus, UniProt Q15JF8).
T2 sequence (Q15JF8 1-213): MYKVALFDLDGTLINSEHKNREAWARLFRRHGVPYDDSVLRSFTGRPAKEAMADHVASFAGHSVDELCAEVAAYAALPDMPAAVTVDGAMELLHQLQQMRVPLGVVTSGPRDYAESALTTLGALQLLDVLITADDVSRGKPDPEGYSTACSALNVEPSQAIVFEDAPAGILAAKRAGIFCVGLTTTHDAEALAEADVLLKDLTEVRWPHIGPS
The test can be described thus: ESI-MS of product. The note with it: 5 mM substrate, 10 mM MgCl2, 50 mM Tris-HCl pH 7.5, 1.5 h.

The next test addresses T3, VldB (Streptomyces hygroscopicus, UniProt Q15JG4).
T3 sequence (Q15JG4 1-373): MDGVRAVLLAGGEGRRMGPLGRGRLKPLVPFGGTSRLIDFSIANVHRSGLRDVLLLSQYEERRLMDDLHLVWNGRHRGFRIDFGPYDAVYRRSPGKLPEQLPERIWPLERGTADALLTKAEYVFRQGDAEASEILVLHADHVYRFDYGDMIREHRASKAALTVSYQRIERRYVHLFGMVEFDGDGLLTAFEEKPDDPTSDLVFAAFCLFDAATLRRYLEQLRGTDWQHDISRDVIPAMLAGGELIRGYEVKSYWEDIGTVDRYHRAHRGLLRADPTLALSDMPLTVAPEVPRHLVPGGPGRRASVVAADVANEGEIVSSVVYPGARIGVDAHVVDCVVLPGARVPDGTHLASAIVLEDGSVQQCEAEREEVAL
As to the kind of experiment: HPLC and ESI-MS of product. The note with it: valienol 1-phosphate as co-substrate; 1 mM Mg2+.

Two compounds from publication PMC3162038 (Journal of the American Chemical Society, 2011) can be followed below.

As for `O=P(O)(O)OC[C@H]1O[C@H](O[C@H]2O[C@H](CO)[C@@H](O)[C@H](O)[C@H]2O)[C@H](O)[C@@H](O)[C@@H]1O` [trehalose 6-phosphate], the ESI-MS of product result on OtsA was “the recombinant OtsA can catalyze the formation of trehalose 6-phosphate”; at VldH, “VldH was able to catalyze dephosphorylation of trehalose 6-phosphate to give trehalose”.

`Nc1nc2c(ncn2[C@@H]2O[C@H](COP(=O)(O)OP(=O)(O)OP(=O)(O)O)[C@@H](O)[C@H]2O)c(=O)[nH]1` [GTP]: at VldB, the “HPLC and ESI-MS of product” value is “effectively catalyzes the conversion of valienol 1-phosphate to GDP-valienol”.
